These results are taken from ChEMBL document CHEMBL4387741, “Optimization of novel reversible Bruton's tyrosine kinase inhibitors identified using Tethering-fragment-based screens” (Bioorg Med Chem, 2019).

Data set [1] addresses Serine/threonine-protein kinase MARK2 (Homo sapiens) (UniProt Q7KZI7). Put plainly: Inhibition of wild-type human partial length MARK2 (M1 to R450 residues) expressed in bacterial expression system at 1 uM by Kinomescan method relative to control.
The test system of data set [2] is Receptor-type tyrosine-protein kinase FLT3 (Homo sapiens), P36888 [UNDEFINED MUTATION]. Put plainly: Inhibition of human partial length FLT3 ITD mutant expressed in bacterial expression system at 1 uM by Kinomescan method relative to control.
Data set [3] concerns the target Glycogen synthase kinase-3 beta (Homo sapiens) (UniProt P49841). Put plainly: Inhibition of wild-type human full length GSK3B (M1 to T433 residues) expressed in mammalian expression system at 1 uM by Kinomescan method relative to control.
A short description of data set [4]: Oral bioavailability in Sprague-Dawley rat using amorphous solid form of compound. To be noted: in vivo. The data set is classed as ADME, organism-based.
The target in data set [5] is Phosphatidylinositol 4,5-bisphosphate 3-kinase catalytic subunit alpha isoform (Homo sapiens) (UniProt P42336). Put plainly: Inhibition of wild-type human partial length PIK3CA (R108 to N1068 residues) expressed in mammalian expression system at 1 uM by Kinomescan method relative to control.
Phosphatidylinositol 4,5-bisphosphate 3-kinase catalytic subunit alpha isoform (Homo sapiens), sequence (P42336 whole entry, the tested form may be a part, canonical isoform): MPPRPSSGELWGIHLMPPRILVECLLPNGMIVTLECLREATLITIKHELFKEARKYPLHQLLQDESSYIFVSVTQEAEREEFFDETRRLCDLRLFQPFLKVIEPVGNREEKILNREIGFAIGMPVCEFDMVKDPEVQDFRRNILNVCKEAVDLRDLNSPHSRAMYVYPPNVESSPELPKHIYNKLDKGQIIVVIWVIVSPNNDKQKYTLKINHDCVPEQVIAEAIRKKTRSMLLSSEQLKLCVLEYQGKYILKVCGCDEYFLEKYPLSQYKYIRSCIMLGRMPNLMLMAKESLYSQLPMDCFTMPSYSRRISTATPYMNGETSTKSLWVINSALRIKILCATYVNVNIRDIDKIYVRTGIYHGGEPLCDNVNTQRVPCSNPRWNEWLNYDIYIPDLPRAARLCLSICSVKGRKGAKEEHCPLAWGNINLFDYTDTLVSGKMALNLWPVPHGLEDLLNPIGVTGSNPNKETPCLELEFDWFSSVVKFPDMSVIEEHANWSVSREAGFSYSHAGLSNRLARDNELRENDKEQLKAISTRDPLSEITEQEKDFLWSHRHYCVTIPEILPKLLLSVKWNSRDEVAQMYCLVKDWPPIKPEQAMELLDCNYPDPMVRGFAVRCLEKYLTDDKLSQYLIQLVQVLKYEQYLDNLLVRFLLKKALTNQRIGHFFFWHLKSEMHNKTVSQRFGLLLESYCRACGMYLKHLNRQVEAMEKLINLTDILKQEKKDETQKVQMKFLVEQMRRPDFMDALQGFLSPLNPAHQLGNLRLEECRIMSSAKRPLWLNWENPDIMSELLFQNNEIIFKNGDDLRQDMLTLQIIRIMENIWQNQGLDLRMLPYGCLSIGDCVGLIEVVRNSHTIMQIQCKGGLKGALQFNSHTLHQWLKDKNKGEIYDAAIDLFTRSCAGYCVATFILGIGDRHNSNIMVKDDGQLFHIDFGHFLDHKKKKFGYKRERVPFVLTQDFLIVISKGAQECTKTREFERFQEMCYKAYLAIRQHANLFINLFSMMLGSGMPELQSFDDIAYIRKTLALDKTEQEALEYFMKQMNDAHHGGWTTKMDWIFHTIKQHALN
The target of data set [6] is Casein kinase I isoform epsilon (Homo sapiens) (UniProt P49674). Put plainly: Inhibition of wild-type human full length CSNK1E (M1 to K416 residues) expressed in bacterial expression system at 1 uM by Kinomescan method relative to control.
In data set [7] the target is Tyrosine-protein kinase CSK (Homo sapiens) (UniProt P41240). Put plainly: Inhibition of wild-type human full length CSK (M1 to L450 residues) expressed in bacterial expression system at 1 uM by Kinomescan method relative to control.
In data set [8] the target is Dual specificity mitogen-activated protein kinase kinase 7 (Homo sapiens) (UniProt O14733). The data set is described as follows: Inhibition of wild-type human full length MKK7 (M1 to R419 residues) expressed in mammalian expression system at 1 uM by Kinomescan method relative to control.
Dual specificity mitogen-activated protein kinase kinase 7 (Homo sapiens), sequence (O14733 whole entry, the tested form may be a part): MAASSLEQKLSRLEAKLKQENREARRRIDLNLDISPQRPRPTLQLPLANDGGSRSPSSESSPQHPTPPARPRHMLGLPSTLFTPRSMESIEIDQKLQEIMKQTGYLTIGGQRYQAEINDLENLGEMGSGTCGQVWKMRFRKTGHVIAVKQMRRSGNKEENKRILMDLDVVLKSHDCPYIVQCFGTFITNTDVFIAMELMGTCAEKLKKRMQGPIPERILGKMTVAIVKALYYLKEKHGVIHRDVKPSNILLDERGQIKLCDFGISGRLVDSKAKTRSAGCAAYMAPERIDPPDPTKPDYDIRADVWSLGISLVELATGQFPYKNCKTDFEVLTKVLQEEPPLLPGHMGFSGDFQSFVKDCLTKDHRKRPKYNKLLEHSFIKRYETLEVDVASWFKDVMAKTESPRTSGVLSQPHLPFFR
The target of data set [9] is Tyrosine-protein kinase JAK1 (Homo sapiens) (UniProt P23458). Put plainly: Inhibition of wild-type human partial length JAK1 JH1 catalytic domain (V856 to K1154 residues) expressed in bacterial expression system at 1 uM by Kinomescan method relative to control.
Tyrosine-protein kinase JAK1 (Homo sapiens), sequence (P23458 whole entry, the tested form may be a part): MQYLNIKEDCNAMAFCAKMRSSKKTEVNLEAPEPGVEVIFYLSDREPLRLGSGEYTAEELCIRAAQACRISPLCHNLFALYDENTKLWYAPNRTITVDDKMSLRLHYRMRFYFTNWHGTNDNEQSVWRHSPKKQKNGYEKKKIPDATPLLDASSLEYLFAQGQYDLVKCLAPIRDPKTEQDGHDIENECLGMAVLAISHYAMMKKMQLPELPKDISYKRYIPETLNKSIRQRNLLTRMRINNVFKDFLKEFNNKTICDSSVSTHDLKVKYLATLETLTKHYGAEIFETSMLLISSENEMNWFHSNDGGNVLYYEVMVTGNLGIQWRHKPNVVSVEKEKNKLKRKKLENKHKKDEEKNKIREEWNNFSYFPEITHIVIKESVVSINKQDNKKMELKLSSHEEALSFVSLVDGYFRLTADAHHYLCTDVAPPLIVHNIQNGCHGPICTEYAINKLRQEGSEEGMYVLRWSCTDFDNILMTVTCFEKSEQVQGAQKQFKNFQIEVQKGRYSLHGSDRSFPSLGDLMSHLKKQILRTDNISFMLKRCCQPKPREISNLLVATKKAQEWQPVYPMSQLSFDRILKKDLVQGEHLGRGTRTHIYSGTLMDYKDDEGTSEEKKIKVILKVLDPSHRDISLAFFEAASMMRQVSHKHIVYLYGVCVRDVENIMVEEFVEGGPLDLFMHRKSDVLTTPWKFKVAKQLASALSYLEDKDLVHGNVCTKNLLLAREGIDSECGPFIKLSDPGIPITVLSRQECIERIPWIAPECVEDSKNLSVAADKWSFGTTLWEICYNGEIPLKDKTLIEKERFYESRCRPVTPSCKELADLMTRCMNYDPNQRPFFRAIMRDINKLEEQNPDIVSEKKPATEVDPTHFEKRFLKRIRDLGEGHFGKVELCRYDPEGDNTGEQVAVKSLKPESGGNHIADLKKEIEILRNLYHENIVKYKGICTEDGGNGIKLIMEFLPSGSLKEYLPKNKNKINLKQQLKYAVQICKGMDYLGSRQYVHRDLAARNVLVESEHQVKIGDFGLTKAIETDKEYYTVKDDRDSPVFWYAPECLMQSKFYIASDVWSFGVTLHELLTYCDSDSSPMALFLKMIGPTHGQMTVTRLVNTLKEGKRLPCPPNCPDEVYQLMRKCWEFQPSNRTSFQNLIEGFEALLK
The target of data set [10] is Mitogen-activated protein kinase 9 (Homo sapiens) (UniProt P45984). Put plainly: Inhibition of wild-type human full length JNK2 (M1 to Q382 residues) expressed in mammalian expression system at 1 uM by Kinomescan method relative to control.
The target of data set [11] is Serine/threonine-protein kinase Nek1 (Homo sapiens) (UniProt Q96PY6). The data set is described as follows: Inhibition of wild-type human partial length NEK1 (M1 to K278 residues) expressed in bacterial expression system at 1 uM by Kinomescan method relative to control.
In data set [12] the target is Protein kinase C eta type (Homo sapiens) (UniProt P24723). Put plainly: Inhibition of wild-type human partial length PRKCH (S324 to P683 residues) expressed in bacterial expression system at 1 uM by Kinomescan method relative to control.
In data set [13] the target is Dual specificity mitogen-activated protein kinase kinase 3 (Homo sapiens) (UniProt P46734). The data set is described as follows: Inhibition of wild-type human full length MEK3 (M1 to S318 residues) expressed in mammalian expression system at 1 uM by Kinomescan method relative to control.
Dual specificity mitogen-activated protein kinase kinase 3 (Homo sapiens), sequence (P46734 whole entry, the tested form may be a part): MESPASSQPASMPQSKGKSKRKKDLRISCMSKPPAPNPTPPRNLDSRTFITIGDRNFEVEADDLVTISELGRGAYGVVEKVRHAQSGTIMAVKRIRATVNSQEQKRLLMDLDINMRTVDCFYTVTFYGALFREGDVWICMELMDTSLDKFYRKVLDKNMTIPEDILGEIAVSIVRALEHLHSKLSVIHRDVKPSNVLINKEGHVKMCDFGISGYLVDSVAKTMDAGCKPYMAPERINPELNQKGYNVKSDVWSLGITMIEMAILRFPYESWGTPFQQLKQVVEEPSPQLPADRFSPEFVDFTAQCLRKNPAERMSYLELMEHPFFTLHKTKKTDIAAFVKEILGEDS
The target in data set [14] is Myosin-IIIa (Homo sapiens) (UniProt Q8NEV4). Put plainly: Inhibition of wild-type human partial length MYO3A (M1 to K338 residues) expressed in bacterial expression system at 1 uM by Kinomescan method relative to control.
Data set [15] concerns the target Cyclin-dependent kinase-like 2 (Homo sapiens) (UniProt Q92772). The data set is described as follows: Inhibition of wild-type human partial length CDKL2 (M1 to D327 residues) expressed in bacterial expression system at 10 uM by Kinomescan method relative to control.
In data set [16] the test system is Tyrosine-protein kinase ABL1 (Homo sapiens), P00519 [F317L]. Put plainly: Inhibition of human non-phosphorylated ABL1 F317L mutant (S229 to K512 residues) expressed in mammalian expression system at 10 uM by Kinomescan method relative to control.
The target in data set [17] is Dual specificity mitogen-activated protein kinase kinase 3 (Homo sapiens) (UniProt P46734). Put plainly: Inhibition of wild-type human full length MEK3 (M1 to S318 residues) expressed in mammalian expression system at 10 uM by Kinomescan method relative to control.
Data set [18] concerns the target Serine/threonine-protein kinase Chk1 (Homo sapiens) (UniProt O14757). Put plainly: Inhibition of wild-type human partial length CHEK1 (M1 to G289 residues) expressed in bacterial expression system at 10 uM by Kinomescan method relative to control.
The target of data set [19] is Serine/threonine-protein kinase DCLK2 (Homo sapiens) (UniProt Q8N568). The data set is described as follows: Inhibition of wild-type human partial length DCAMKL2 (K273 to V664 residues) expressed in bacterial expression system at 10 uM by Kinomescan method relative to control.
Serine/threonine-protein kinase DCLK2 (Homo sapiens), sequence (Q8N568 whole entry, the tested form may be a part, canonical isoform): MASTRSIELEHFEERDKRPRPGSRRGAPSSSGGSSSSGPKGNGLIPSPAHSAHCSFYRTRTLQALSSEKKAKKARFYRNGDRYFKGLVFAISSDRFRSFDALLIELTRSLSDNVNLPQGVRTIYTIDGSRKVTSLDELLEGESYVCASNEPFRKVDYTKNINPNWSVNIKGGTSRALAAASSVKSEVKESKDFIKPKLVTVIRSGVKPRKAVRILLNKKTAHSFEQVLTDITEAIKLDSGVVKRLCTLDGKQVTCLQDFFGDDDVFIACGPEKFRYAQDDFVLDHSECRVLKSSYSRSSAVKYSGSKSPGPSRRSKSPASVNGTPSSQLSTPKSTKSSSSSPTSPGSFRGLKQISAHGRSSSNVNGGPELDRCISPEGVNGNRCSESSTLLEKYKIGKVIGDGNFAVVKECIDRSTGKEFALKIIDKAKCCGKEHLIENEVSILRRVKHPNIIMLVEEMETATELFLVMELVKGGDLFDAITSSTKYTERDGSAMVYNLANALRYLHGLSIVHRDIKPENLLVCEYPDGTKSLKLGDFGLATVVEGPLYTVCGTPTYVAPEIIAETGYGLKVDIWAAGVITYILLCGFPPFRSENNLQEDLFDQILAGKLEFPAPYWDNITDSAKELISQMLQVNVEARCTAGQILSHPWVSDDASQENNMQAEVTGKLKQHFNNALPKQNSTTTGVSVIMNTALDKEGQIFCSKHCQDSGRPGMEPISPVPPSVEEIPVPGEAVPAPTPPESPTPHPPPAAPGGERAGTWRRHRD
Data set [20] deals with Phosphatidylinositol 4,5-bisphosphate 3-kinase catalytic subunit alpha isoform (Homo sapiens), P42336 [C420R]. Put plainly: Inhibition of human partial length PIK3CA C420R mutant (R108 to N1068 residues) expressed in mammalian expression system at 10 uM by Kinomescan method relative to control.
Phosphatidylinositol 4,5-bisphosphate 3-kinase catalytic subunit alpha isoform (Homo sapiens), P42336 [C420R], sequence (P42336 whole entry C420R, the tested form may be a part, canonical isoform): as the sequence (P42336 whole entry, the tested form may be a part, canonical isoform) above, with C420R counted along it
Data set [21] has as its target Ephrin type-A receptor 2 (Homo sapiens) (UniProt P29317). Put plainly: Inhibition of wild-type human partial length EPHA2 (T593 to V891 residues) expressed in bacterial expression system at 10 uM by Kinomescan method relative to control.
Data set [22] addresses Casein kinase II subunit alpha (Homo sapiens) (UniProt P68400). Put plainly: Inhibition of wild-type human full length CSNK2A1 (M1 to Q391 residues) expressed in mammalian expression system at 10 uM by Kinomescan method relative to control.
Data set [23] addresses Mitogen-activated protein kinase kinase kinase kinase 5 (Homo sapiens) (UniProt Q9Y4K4). The data set is described as follows: Inhibition of wild-type human partial length MAP4K5 (M1 to P297 residues) expressed in bacterial expression system at 10 uM by Kinomescan method relative to control.
Data set [24] deals with SRSF protein kinase 2 (Homo sapiens) (UniProt P78362). The data set is described as follows: Inhibition of wild-type human full length SRPK2 (M1 to S686 residues) expressed in bacterial expression system at 10 uM by Kinomescan method relative to control.
For data set [25], the target named is Serine/threonine-protein kinase PLK3 (Homo sapiens) (UniProt Q9H4B4). The data set is described as follows: Inhibition of wild-type human partial length PLK3 (A42 to L334 residues) expressed in mammalian expression system at 10 uM by Kinomescan method relative to control.
Data set [26] addresses Serine/threonine-protein kinase tousled-like 1 (Homo sapiens) (UniProt Q9UKI8). The data set is described as follows: Inhibition of wild-type human partial length TLK1 (K447 to A754 residues) expressed in bacterial expression system at 10 uM by Kinomescan method relative to control.
The target in data set [27] is Mitogen-activated protein kinase kinase kinase 10 (Homo sapiens) (UniProt Q02779). The data set is described as follows: Inhibition of wild-type human partial length MLK2 (V52 to W380 residues) expressed in bacterial expression system at 10 uM by Kinomescan method relative to control.
Mitogen-activated protein kinase kinase kinase 10 (Homo sapiens), sequence (Q02779 whole entry, looked up, the tested form may be a part): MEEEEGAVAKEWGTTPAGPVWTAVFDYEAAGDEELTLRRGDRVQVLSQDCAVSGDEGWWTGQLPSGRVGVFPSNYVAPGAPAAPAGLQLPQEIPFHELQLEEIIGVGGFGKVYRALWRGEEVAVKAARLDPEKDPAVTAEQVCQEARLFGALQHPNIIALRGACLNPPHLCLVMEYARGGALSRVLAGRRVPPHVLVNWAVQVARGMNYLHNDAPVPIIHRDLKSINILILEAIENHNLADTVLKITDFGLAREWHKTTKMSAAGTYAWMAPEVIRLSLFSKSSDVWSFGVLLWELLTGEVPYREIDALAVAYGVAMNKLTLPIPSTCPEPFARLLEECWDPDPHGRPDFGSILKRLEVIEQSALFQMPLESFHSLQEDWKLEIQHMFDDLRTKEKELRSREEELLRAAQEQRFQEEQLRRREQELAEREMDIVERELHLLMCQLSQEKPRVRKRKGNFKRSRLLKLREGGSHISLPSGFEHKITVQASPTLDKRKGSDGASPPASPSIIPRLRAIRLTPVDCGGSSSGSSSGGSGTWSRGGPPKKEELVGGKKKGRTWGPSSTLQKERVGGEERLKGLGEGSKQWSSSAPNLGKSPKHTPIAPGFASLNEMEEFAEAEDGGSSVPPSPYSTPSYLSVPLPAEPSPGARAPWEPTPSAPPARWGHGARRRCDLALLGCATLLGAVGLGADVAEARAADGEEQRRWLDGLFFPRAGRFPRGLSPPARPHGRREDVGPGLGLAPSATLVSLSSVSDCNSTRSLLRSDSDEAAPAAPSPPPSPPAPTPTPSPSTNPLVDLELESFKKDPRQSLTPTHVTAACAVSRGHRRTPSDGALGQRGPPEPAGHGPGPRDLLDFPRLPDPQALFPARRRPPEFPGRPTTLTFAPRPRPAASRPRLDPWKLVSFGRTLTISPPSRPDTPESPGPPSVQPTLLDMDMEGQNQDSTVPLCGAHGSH
Data set [28] addresses Serine/threonine-protein kinase SIK2 (Homo sapiens) (UniProt Q9H0K1). The data set is described as follows: Inhibition of wild-type human full length SIK2 (M1 to N926 residues) expressed in bacterial expression system at 10 uM by Kinomescan method relative to control.

SMILES strings stand for the structures.

Turning to `O=C(Nc1cccc([C@@H]2CN(c3ncnc4[nH]ccc34)CCN2CCO)c1)Nc1c(F)cccc1N1CCCC1`, the inhibition – broadly, the change of the read-out against control, counted positive when it falls – turned out to be 69% in data set [1]; 8.7% in data set [2]; 83% in data set [3]; 100% in data set [5]; 94% in data set [6]; 65% in data set [7]. In addition, the inhibition was 74% in [8]; 17% in [9]; 100% in data set [10]; 100% in data set [11]; 80% in [12]; 77% in data set [13]. This molecule showed an inhibition in data set [14] of 82%. Also, the bioavailability – broadly, dose-corrected exposure relative to a reference, in per cent – in data set [4] was determined as 12%.
On to `O=C(Nc1cccc([C@H]2CCCN(c3ncnc4[nH]ccc34)C2)c1)Nc1ccccc1N1CCCC1`, for which the inhibition in data set [15] stood at 38%; in [16], 89%; in data set [17], 54%; in [18] it was 100%; in data set [19], 83%; in data set [20] it was 85%. The inhibition was 50% in data set [21]; 67% in data set [22]; 30% in data set [23]; 53% in data set [24]; 65% in data set [25]; 78% in data set [26]. Also, the inhibition came to 100% in [27] and 84% in data set [28].
